Read-outs that look alike come from different tables or passages of the source.
Tests used:
Assay type in all cases: cell-based
[1] = tested on: Panc 05.04 cells (pancreatic cancer cells; Q699H and K700E mutations in SF3B1); assay: Cell viability assay (CellTiter-Glo, 72 hr), Panc 05.04 cells; conditions: for Emax: maximum achievable response in tested dose range, negative value = cellular lethality, read-out: Panc 05.04 (mt SF3B1 cells) Emax (%)
Procedure: (§1) Cells (WiDr and Panc05.04 obtained from ATCC) were seeded in 96-well plates, with 2000 cells/100 μL/well, and incubated overnight. Spent media was removed, and fresh media containing 9 different concentrations of compound (100 μL/well) were added, with DMSO concentration from compound stock solution adjusted to be 0.1%. Each compound treatment was done in duplicate or triplicate at each concentration.
(§2) Another plate with cells seeded was dedicated as a time zero (Tz) plate, to which was added 0.1% DMSO in media (100 μL/well) followed by CellTiter-Glo® reagent (Promega Corporation, Madison, Wisconsin) (50 μL/well) for ATP measurement as a surrogate of cell viability. Average value from measurement of multiple wells of this plate is used as Tz. Compound-treated plates were incubated for 72 hr at 37° C. Then, CellTiter-Glo® reagent (50 μL/well) was added and ATP was measured. Average value from measurement of the duplicate or triplicate compound-treated wells is used as Ti, and seeded plates with medium having 0.1% DMSO without compound is used as control growth (C).
(§3) Percentage growth inhibition/Percentage viability was calculated as:
(§4) [(Ti−Tz)/(C−Tz)]×100 for concentrations for which Ti>/=Tz
(§5) [(Ti−Tz)/Tz]×100 for concentrations for which Ti<Tz.
(§6) *time zero (Tz), control growth (C), and test growth in the presence of compound (Ti) Percentage growth inhibition/Percentage viability are plotted versus compound concentration to determine Emax.
(§7) Emax refers to the maximum achievable response to a compound in a tested dose range, with a negative value indicating cellular lethality. A larger negative Emax value indicates greater cellular lethality for a particular compound.

[2] = tested on: WiDr-R cells (colon cancer cells; chemically-induced SF3B1 R1074H mutant); assay: Cell viability assay (CellTiter-Glo, 72 hr), resistant WiDr-R cells (counter-screen); conditions: WiDr-R cells (SF3B1 R1074H mutation, resistant); read-out: WiDr-R GI50
Procedure: as §1, §2, §3, §4, §5, §6, §7
The counter-screening of compounds in this viability assay with a “resistant” WiDr-R cell line may indicate whether these compounds have off-target effect(s).

[3] = tested on: WiDr cells (colon cancer cells; wildtype SF3B1); assay: Cell viability assay (CellTiter-Glo, 72 hr), WiDr cells; conditions: Homo sapiens
Procedure: as §1, §2, §3, §4, §5, §6
Emax refers to the maximum achievable response to a compound in a tested dose range, with a negative value indicating cellular lethality. A larger negative Emax value indicates greater cellular lethality for a particular compound. […]

[4] = Panc 05.04 cells (mutant SF3B1), read-out: Panc 05.04 (mt SF3B1 cells), GI50
[5] = WiDr cells (wildtype SF3B1), read-out: WiDr GI50
[6] = Panc 05.04 cells (mutant SF3B1)
[7] = Panc 05.04, Panc05.04 cells, 72 hr, CellTiter-Glo, read-out: Panc05.04 GI50
[8] = WiDr cells, 72 hr, CellTiter-Glo, read-out: WiDr GI50

SMILES | GI50 [1, 4] [nM] | GI50 [2] [nM] | GI50 [3, 5] [nM] | Emax [1, 6] [%] | GI50 [1, 7] [nM] | GI50 [3, 8] [nM] | GI50 ([3]; WiDr, read-out: WiDr GI50 (nM)) [nM] | cellular lethality (Emax comparison) ([1]; Panc 05.04 cells, mutant SF3B1 cell line)
CCCCN(C)C(=O)OC[C@H](C)/C=C/C=C(\C)[C@H]1OC(=O)C[C@H](O)CC[C@@](C)(O)[C@@H](OC(C)=O)/C=C/[C@@H]1C | 198 | > 10000 | 86.5 | – | – | – | – | –
C/C(=C\C=C\C(C)c1ccnc(N2CCCC2)n1)[C@H]1OC(=O)CCCCC[C@@H](OC(=O)N2CCN(C3CCCCCC3)CC2)/C=C/[C@@H]1C (some centres unmarked) | > 10000 | 4080 | 810 | 52 | – | – | – | –
C/C(=C\C=C\[C@@H](C)COC(=O)N1CC[C@@H](NC(=O)OC(C)(C)C)C1)[C@H]1OC(=O)C[C@H](O)CC[C@@](C)(O)[C@@H](OC(=O)N2CCN(C3CCCCCC3)CC2)/C=C/[C@@H]1C | 59.4 | > 1000 | 28 | -59.6 | – | – | – | –
COCc1ccccc1CCC(C)/C=C/C=C(\C)[C@H]1OC(=O)C[C@H](O)CC[C@@](C)(O)[C@@H](OC(C)=O)/C=C/[C@@H]1C (some centres unmarked) | 427 | – | – | -39.5 | – | – | – | –
C/C(=C\C=C\[C@@H](C)COC(=O)N1CCC[C@H]1C)[C@H]1OC(=O)C[C@H](O)CC[C@@](C)(O)[C@@H](OC(=O)N2CCN(C3CCCCCC3)CC2)/C=C/[C@@H]1C | 2.52 | 21.8 | 1.42 | – | – | – | – | –
CC(=O)O[C@H]1/C=C/[C@H](C)[C@@H](/C(C)=C/C=C/[C@@H](C)COC(N)=O)OC(=O)C[C@H](O)CC[C@@]1(C)O | 2090 | > 10000 | 8130 | 40.1 | – | – | – | –
COCCN(C)C(=O)OC[C@H](C)/C=C/C=C(\C)[C@H]1OC(=O)C[C@H](O)CC[C@@](C)(O)[C@@H](OC(C)=O)/C=C/[C@@H]1C | 64.3 | > 1000 | 247 | -96.8 | – | – | – | –
C/C(=C\C=C\[C@@H](C)COC(=O)N1CCc2ccccc21)[C@H]1OC(=O)C[C@H](O)CC[C@@](C)(O)[C@@H](OC(=O)N2CCN(C)CC2)/C=C/[C@@H]1C | 16.7 | > 1000 | 19.8 | -97 | – | – | – | –
CC(=O)O[C@H]1/C=C/[C@H](C)[C@@H](/C(C)=C/C=C/Cc2ccncc2)OC(=O)C[C@H](O)CC[C@@]1(C)O | > 6400 | > 10000 | 610 | 76.5 | – | – | – | –
CC(=O)O[C@H]1/C=C/[C@H](C)[C@@H](/C(C)=C/C=C/C(C)(O)c2ccccc2)OC(=O)C[C@H](O)CC[C@@]1(C)O (some centres unmarked) | 1500 | > 10000 | 657 | 13.3 | – | – | – | –
C/C(=C\C=C\[C@@H](C)c1ccccn1)[C@H]1OC(=O)C[C@H](O)CC[C@@](C)(O)[C@@H](OC(=O)N2CCN(C3CCCCCC3)C(C)C2)/C=C/[C@@H]1C (some centres unmarked) | 126 | > 1000 | 133 | -60.4 | – | – | – | –
CCC(=O)[C@@H](C)[C@H]1O[C@@H]1C[C@@](C)(O)/C=C/C=C(\C)[C@H]1OC(=O)CC(=O)CC[C@@](C)(O)[C@@H](OC(C)=O)/C=C/[C@@H]1C | 97.7 | – | – | -81.7 | – | – | – | –
C/C(=C\C=C\[C@@H](C)CO)[C@H]1OC(=O)C[C@H](O)CC[C@@](C)(O)[C@@H](OC(=O)N2CCN(C)CC2)/C=C/[C@@H]1C | 1390 | > 10000 | 1150 | 35.1 | – | – | – | –
C/C(=C\C=C\[C@@H](C)COC(=O)N1Cc2ccccc2C1)[C@H]1OC(=O)C[C@H](O)CC[C@@](C)(O)[C@@H](OC(=O)N2CCN(C)CC2)/C=C/[C@@H]1C | 35.4 | > 1000 | 33.8 | -56 | – | – | – | –
C/C(=C\C=C\[C@@H](C)c1ccccn1)[C@H]1OC(=O)CCCCC[C@@H](OC(=O)N2CCN(C3CCCCCC3)CC2)/C=C/[C@@H]1C | 883 | 3820 | 258 | -40.6 | – | – | – | –
C/C(=C\C=C\[C@@H](C)COC(=O)N1C[C@H](O)[C@@H](O)C1)[C@H]1OC(=O)C[C@H](O)CC[C@@](C)(O)[C@@H](OC(=O)N2CCN(C3CCCCCC3)CC2)/C=C/[C@@H]1C | 74.6 | > 1000 | 294 | -95.4 | – | – | – | –
CC[C@H](O)[C@@H](C)C(=O)OC[C@H](C)/C=C/C=C(\C)[C@H]1OC(=O)C[C@H](O)CC[C@@](C)(O)[C@@H](OC(C)=O)/C=C/[C@@H]1C | 31.1 | > 10000 | 42.8 | -90.5 | – | – | – | –

SMILES | GI50 [1, 4] [nM] | GI50 [2] [nM] | GI50 [3, 5] [nM] | Emax [1, 6] [%] | GI50 [1, 7] [nM] | GI50 [3, 8] [nM] | GI50 ([3]; WiDr, read-out: WiDr GI50 (nM)) [nM] | cellular lethality (Emax comparison) ([1]; Panc 05.04 cells, mutant SF3B1 cell line)
C/C(=C\C=C\[C@@H](C)COC(=O)N1CC2CC2C1)[C@H]1OC(=O)C[C@H](O)CC[C@@](C)(O)[C@@H](OC(=O)N2CCN(C3CCCCCC3)CC2)/C=C/[C@@H]1C (some centres unmarked) | 18.6 | > 1000 | 8.28 | -84.2 | – | – | – | –
C/C(=C\C=C\C(C)c1ncccn1)[C@H]1OC(=O)CCCCC[C@@H](OC(=O)N2CCN(C)CC2)/C=C/[C@@H]1C (some centres unmarked) | 40.4 | > 1000 | 45.7 | -72.6 | – | – | – | –
C/C(=C\C=C\[C@@H](C)COC(=O)N1CCC2(COC2)C1)[C@H]1OC(=O)C[C@H](O)CC[C@@](C)(O)[C@@H](OC(=O)N2CCN(C3CCCCCC3)CC2)/C=C/[C@@H]1C | 7.98 | 603 | 6.39 | -76.4 | – | – | – | –
COc1cccc(C(C)/C=C/C=C(\C)[C@H]2OC(=O)C[C@H](O)CC[C@@](C)(O)[C@@H](OC(C)=O)/C=C/[C@@H]2C)n1 (some centres unmarked) | 554 | > 10000 | 282 | -12.7 | – | – | – | –
CC(=O)O[C@H]1/C=C/[C@H](C)[C@@H](/C(C)=C/C=C/[C@](C)(O)CCc2ccccc2)OC(=O)C[C@H](O)CC[C@@]1(C)O | 314 | > 10000 | 167 | -55.4 | – | – | – | –
C/C(=C\C=C\[C@@H](C)c1cccnc1)[C@H]1OC(=O)C[C@H](O)CC[C@@](C)(O)[C@@H](OC(=O)N2CCN(C3CCCCCC3)CC2)/C=C/[C@@H]1C (single isomer, unassigned) [Compound 159] | – | – | – | – | 15 | 13.3 | – | –
COCc1ccc(CCC(C)/C=C/C=C(\C)[C@H]2OC(=O)C[C@H](O)CC[C@@](C)(O)[C@@H](OC(C)=O)/C=C/[C@@H]2C)cc1 (some centres unmarked) | 321 | – | – | -67.3 | – | – | – | –
CC[C@H](O)[C@@H](C)[C@H]1O[C@@H]1C[C@@](C)(O)/C=C/C=C(\C)[C@H]1OC(=O)C[C@H](O)CC[C@@](C)(OC)[C@@H](OC(=O)N(C)CCN(C)C)/C=C/[C@@H]1C | 3.48 | – | – | -64.4 | – | – | – | –
CCOc1cccc(CCC(C)/C=C/C=C(\C)[C@H]2OC(=O)C[C@H](O)CC[C@@](C)(O)[C@@H](OC(C)=O)/C=C/[C@@H]2C)c1 (some centres unmarked) | 508 | – | – | -32 | – | – | – | –
C/C(=C\C=C\[C@@H](C)COC(=O)N1CC[C@@H](O)C1)[C@H]1OC(=O)CCCCC[C@@H](OC(=O)N(C)C)/C=C/[C@@H]1C | 139 | – | – | -83.7 | – | – | 154 | –
CC(=O)O[C@H]1/C=C/[C@H](C)[C@@H](/C(C)=C/C=C/C(C)CCc2ccccc2)OC(=O)C[C@H](O)CC[C@@]1(C)O (some centres unmarked) | 827 | – | – | -26.4 | – | – | – | –
CC[Si](CC)(CC)O[C@@H]1CCN(c2nccc(C(C)/C=C/C=C(\C)[C@H]3OC(=O)CCCCC[C@@H](OC(=O)N4CCN(C5CCCCCC5)CC4)/C=C/[C@@H]3C)n2)C1 (some centres unmarked) | – | > 10000 | > 1000 | – | – | – | – | –
C/C(=C\C=C\C(C)c1cccnc1)[C@H]1OC(=O)C[C@H](O)CC[C@@](C)(O)[C@@H](OC(=O)N2CCC(N3CCC(F)CC3)CC2)/C=C/[C@@H]1C (some centres unmarked) | 862 | – | – | 12.5 | – | – | – | –
CC(=O)O[C@H]1/C=C/[C@H](C)[C@@H](/C(C)=C/C=C/C(C)(O)CCc2ccc(O)cc2)OC(=O)C[C@H](O)CC[C@@]1(C)O (some centres unmarked) | 249 | – | – | -70.5 | – | – | – | –
C/C(=C\C=C\[C@H](C)c1cccnc1)[C@H]1OC(=O)C[C@H](O)CC[C@@](C)(O)[C@@H](OC(=O)N2CCN(C3CCCCCC3)CC2)/C=C/[C@@H]1C (single isomer, unassigned) [Compound 160] | – | – | – | – | 15.8 | 29.5 | – | –
C/C(=C\C=C\[C@@H](C)CCC(=O)N1CCCC1)[C@H]1OC(=O)CC(O)CCC(C)(O)[C@@H](OC(=O)N2CCN(C)CC2)/C=C/[C@@H]1C (stereo in doubt) [Compound 1, [(2S,3S,4E,6S,7S,10S)-7,10-dihydroxy-3,7-dimethyl-2-[(2E,4E,6S)-6-methyl-9-oxo-9-pyrrolidin-1-ylnona-2,4-dien-2-yl]-12-oxo-1-oxacyclododec-4-en-6-yl] 4-methylpiperazine-1-carboxylate] | – | – | – | – | – | – | – | greater cellular lethality than Compound 7
